From ChEMBL document CHEMBL1157334, “Neuroprotective diterpenes from the fruiting body of Antrodia camphorata” (2006)

Legend:
[1] = Neuroprotective effect against amyloid beta(25 to 35)-induced cell death in Harlan Sprague-Dawley rat pups cortical neurons assessed as cell viability at 1 uM treated 2 hrs before amyloid beta(25 to 35) treatment after 40 hrs by MTT assay; assay type: functional, Cortical neurone; details: for viability at 1 µM: Rattus norvegicus, Harlan Sprague-Dawley, Cortical neurone, read-out: Activity
[2] = Neuroprotective effect against amyloid beta(25 to 35)-induced cell death in Harlan Sprague-Dawley rat pups cortical neurons assessed as cell viability at 5 uM treated 2 hrs before amyloid beta(25 to 35) treatment after 40 hrs by MTT assay; assay type: functional, Cortical neurone; details: for viability at 5 µM: Rattus norvegicus, Harlan Sprague-Dawley, Cortical neurone, read-out: Activity
[3] = Neuroprotective effect against amyloid beta(25 to 35)-induced cell death in Harlan Sprague-Dawley rat pups cortical neurons assessed as cell viability at 10 uM treated 2 hrs before amyloid beta(25 to 35) treatment after 40 hrs by MTT assay; assay type: functional; details: Cortical neurone, read-out: Activity

Structure (SMILES)	Activity [1] [%]	Activity [2] [%]	viability at 10 µM [3] [%]	viability at 1 µM [1] [%]	viability at 5 µM [2] [%]
C=C1CC[C@@H]2[C@](C)(CC[C@H](O)[C@]2(C)CO)[C@H]1/C=C/C1CCOC1=O (stereo in doubt; 2)	43.8	34.9			
C=C1CC[C@@H]2[C@](C)(CC[C@H](O)[C@]2(C)CO)[C@H]1/C=C/C1CCOC1=O (stereo in doubt; 3)			36.7	45.1	39.6
C=C1CC[C@@H]2[C@](C)(CO)[C@H](O)CC[C@@]2(C)[C@@H]1/C=C/C1=CCOC1=O			30.8	40.7	35.7
C=C1CC[C@H]2[C@@](C)(CO)CCC[C@]2(C)[C@H]1CCC1=CCOC1=O			28.9	41.2	34.8
CC(=O)N[C@@H](CC(=O)O)C(=O)N[C@@H](CCC(=O)O)C(=O)N[C@H](C(=O)N[C@H](C=O)CC(=O)O)C(C)C			24.5	35.8	30.2
C=C1CC[C@H]2[C@@](C)(CO)CCC[C@]2(C)[C@H]1CCC1CCOC1=O (some centres not stated)			28.1	34.4	25.3
